Reference: patent US20240262811A1, “BENZIMIDAZOYL GLP-1 RECEPTOR AGONISTS, PHARMACEUTICAL COMPOSITIONS COMPRISING THE SAME, AND METHODS FOR THEIR USE” (Carmot Therapeutics, Inc., priority 2021, published 2024)

Biological target: T1, human GLP-1 receptor (Homo sapiens, UniProt P43220)
T1 construct: expressed in transfected cells
Assay: GLP-1R cAMP Assay (HitHunter cAMP accumulation in CHO cells stably overexpressing the human GLP-1 receptor)
Assay type: cell-based
Conditions: CHO cells overexpressing human GLP-1 receptor, 30 min treatment, 20-point dose response in triplicate
Protocol: cAMP accumulation was measured in Chinese hamster ovary (CHO) cells stably overexpressing the human GLP-1 receptor using the HitHunter cAMP Assay for Small Molecules Kit (Eurofins). Briefly, cells were grown in Ham's F12 Nutrient Mix with 10% FBS, and lifted with Cell Dissociation Buffer, Enzyme free, PBS based (ThermoFisher). Cells were pelleted, and resuspended in Hank's buffered saline solution with 10 mM HEPES, and 625 μM 3-isobutyl-1-methylxanthine. The anti-cAMP antibody reagent was then added to cells at a 1:2 ratio and 5 μL of mixture was seeded in 384-well small volume white assay plates, at 10,000 cells/well. Cells were then treated with 50 nL compound using an ECHO 550 acoustic dispenser (Labcyte) in a 20-point dose response format in triplicate for 30 min. Cells were then lysed, and detection reagents added according to the manufacturer's protocol. After overnight incubation, luminescence was measured using a Perkin Elmer Envision plate reader. Dose response curves were analyzed using GraphPad Prism 9.0.
Molecular weights are calculated by standard techniques, and mass spectrometry results are reported according to the Examples above.

T1 sequence (P43220 24-463): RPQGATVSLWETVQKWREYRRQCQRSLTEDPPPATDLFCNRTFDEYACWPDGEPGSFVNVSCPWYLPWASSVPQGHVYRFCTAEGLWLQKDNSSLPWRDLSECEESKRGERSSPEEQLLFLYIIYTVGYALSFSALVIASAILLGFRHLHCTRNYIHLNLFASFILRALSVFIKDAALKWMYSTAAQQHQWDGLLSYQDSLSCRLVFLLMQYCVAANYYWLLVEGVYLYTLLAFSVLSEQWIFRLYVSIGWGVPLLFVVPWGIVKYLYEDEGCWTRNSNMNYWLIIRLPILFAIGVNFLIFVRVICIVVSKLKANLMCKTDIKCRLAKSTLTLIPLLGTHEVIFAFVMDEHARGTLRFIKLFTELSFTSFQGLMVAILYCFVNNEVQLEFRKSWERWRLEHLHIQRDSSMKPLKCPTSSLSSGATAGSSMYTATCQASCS

- EC50: < 50 nM
SMILES: O=C(O)c1ccc2nc(CN3CC[C@H](Oc4ccnc(COc5ccc(Cl)cc5F)c4)C3)n(C[C@@H]3CCO3)c2c1 [Compound 289, 2-{[(3S)-3-({2-[(4-chloro-2-fluorophenoxy)methyl]pyridin-4-yl}oxy)pyrrolidin-1-yl]methyl}-1-{[(2S)-oxetan-2-yl]methyl}-1H-1,3-benzodiazole-6-carboxylic acid]
